Results from US20050266469A1, “Alternatively spliced isoforms of checkpoint kinase 1 (CHK1)” (priority 2004, published 2005).
Like-named read-outs stand apart in the source and are kept apart here. Blank lines part the entries; values can stand above or below the compound they belong to.

Tests used:
CHK1sv1 = biological target: T1, CHK1sv1 (Homo sapiens, UniProt O14757); assay: CHK1sv1 kinase assay (Homogenous Time-Resolved Fluorescence, synthetic peptide substrate); assay type: biochemical
T1 construct: made in house; host or cells: SF9 insect cells (baculovirus, pVL1393 transfer vector)
T1 sequence (O14757 with tags, fused parts or gaps): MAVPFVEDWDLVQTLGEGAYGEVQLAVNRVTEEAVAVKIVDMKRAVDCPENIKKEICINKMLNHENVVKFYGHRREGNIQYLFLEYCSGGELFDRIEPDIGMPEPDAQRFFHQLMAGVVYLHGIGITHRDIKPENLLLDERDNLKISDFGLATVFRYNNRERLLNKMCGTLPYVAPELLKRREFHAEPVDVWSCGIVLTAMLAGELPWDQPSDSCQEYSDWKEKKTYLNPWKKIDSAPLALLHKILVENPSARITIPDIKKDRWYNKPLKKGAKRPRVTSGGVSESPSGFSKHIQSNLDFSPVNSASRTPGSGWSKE
Protocol: CHK1sv1 activity was assayed in vitro using a synthetic peptide substrate. The phophopeptide product was quantitated using a Homogenous Time-Resolved Fluorescence assay system (Park et al., 1999, Anal. Biochem. 269:94-104). The reaction mixture contained 40 mM HEPES, pH 7.3; 100 mM NaCl; 10 mM MgCl2; 2 mM dithiothreitol; 0.1% BSA; 0.1 mM ATP; 0.5 μM peptide substrate; and 0.1 nM CHK1sv1 enzyme in a final volume of 40 μl. […] The kinase reaction was incubated for 30 minutes at 22° C., and then terminated with 60 μl Stop/Detection Buffer (40 mM HEPES, pH 7.3; 10 mM EDTA; 0.125% Triton X-100; 1.25% BSA; 250 nM PhycoLink Streptavidin-Allophycocyanin (APC) Conjugate (Prozyme, San Leandro, Calif.); and […] Europium-chelate labeled anti-phosphotyrosine antibody (PY20, Perkin Elmer, Boston, Mass.)). The reaction was allowed to equilibrate for 2 hours at 22° C., and relative fluorescent units were read on a Discovery plate reader (Packard Biosciences). ATP Km was determined by varying ATP concentration from 0.003 to 3 mM in the reaction described above and determining the relative enzymatic rates. […] CHK1sv1 Vmax was calculated by determining the amount of phospho-peptide product formed per microgram of CHKsv1 when both ATP and CDC25C peptide substrate are at saturating concentrations.

reference CHK1 = biological target: T2, reference CHK1 (Homo sapiens, UniProt O14757); conditions: cited from earlier work
T2 sequence (O14757 1-476): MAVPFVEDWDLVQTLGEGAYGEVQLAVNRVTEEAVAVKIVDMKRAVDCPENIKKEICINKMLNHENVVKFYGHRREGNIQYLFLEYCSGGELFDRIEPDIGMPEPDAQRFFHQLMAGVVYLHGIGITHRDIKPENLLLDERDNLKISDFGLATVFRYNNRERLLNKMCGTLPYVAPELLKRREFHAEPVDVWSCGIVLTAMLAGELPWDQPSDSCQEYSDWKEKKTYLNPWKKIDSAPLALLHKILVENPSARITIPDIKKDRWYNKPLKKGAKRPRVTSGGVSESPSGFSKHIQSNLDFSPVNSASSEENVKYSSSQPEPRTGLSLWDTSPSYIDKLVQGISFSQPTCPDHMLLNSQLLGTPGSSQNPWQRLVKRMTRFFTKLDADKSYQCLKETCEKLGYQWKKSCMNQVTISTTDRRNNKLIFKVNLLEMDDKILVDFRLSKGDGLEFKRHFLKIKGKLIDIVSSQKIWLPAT

[1] = read-out: CHK1sv1 inhibition by derivatives of staurosporin, IC50 values, CHK1sv1 enzyme 0.1 nM, 0.1 mM ATP, 0.5 μM peptide substrate, 30 minutes at 22° C.

- Km (CHK1sv1; CDC25C-derived peptide varied from 0.0003 to 1 mM): 120 µM
Compound: CDC25C substrate: peptide derived from the known CHK1 kinase substrate CDC25C, GLYRSPSMPENLNR (SynPep) (listed as Homo sapiens)
- Km (reference CHK1; previously described (O'Neill et al., 2002; Jackson et al., 2000), read-out: Km (CDC25C substrate)): 12 µM

Compound: COC(=O)[C@@]1(O)C[C@H]2O[C@]1(C)n1c3ccccc3c3c4c(c5c6ccccc6n2c5c31)C(=O)NC4 [K252A]
- IC50 (CHK1sv1): 50 nM

Compound: Cn1cc(C2=C(c3cn(CCCN)c4ccccc34)C(=O)NC2=O)c2ccccc21 [RO317549]
- IC50 (CHK1sv1; [1]): 125 nM

- IC50 (CHK1sv1; CHK1sv1 enzyme 0.1 nM, 0.1 mM ATP, 0.5 μM peptide substrate, 30 minutes at 22° C.): 390 nM
Compound: CN(C)C[C@H]1CCn2c(c(C3=C(c4cn(C)c5ccccc45)C(=O)NC3=O)c3ccccc32)C1 [RO-320432]

Compound: Cn1c2ccccc2c2c3c(c4c5ccccc5n(CCC#N)c4c21)CNC3=O [Gö6976]
- IC50 (CHK1sv1; [1]): 0.75 nM
- IC50 (reference CHK1; previously published (Davies et al., 2000), read-out: IC50 value for the reference CHK1 inhibited by Gö6976): 3 nM
